Experimental data published in US9957273B2, “5-substituted 7- [4-(2-pyridyl)phenylmethylamino] -3-isopropylpyrazolo4,3-D]pyrimidine derivatives, use thereof as medicaments, and pharmaceutical compositions” (USTAV EXPERIMENTALNI BOTANIKY AV CR, V.V.I., priority 2015, dated 2018).
One block for each compound: values may come before it.

Columns and labels:
[1] = target: T1, CDK5/p35 (Homo sapiens, UniProt Q00535); test: CDK5/p35 kinase inhibition (33P-ATP, histone H1); format: biochemical; conditions: 0.15 μM ATP
T1 construct: purchased ProQinase GmbH
T1 sequence (Q00535 whole entry): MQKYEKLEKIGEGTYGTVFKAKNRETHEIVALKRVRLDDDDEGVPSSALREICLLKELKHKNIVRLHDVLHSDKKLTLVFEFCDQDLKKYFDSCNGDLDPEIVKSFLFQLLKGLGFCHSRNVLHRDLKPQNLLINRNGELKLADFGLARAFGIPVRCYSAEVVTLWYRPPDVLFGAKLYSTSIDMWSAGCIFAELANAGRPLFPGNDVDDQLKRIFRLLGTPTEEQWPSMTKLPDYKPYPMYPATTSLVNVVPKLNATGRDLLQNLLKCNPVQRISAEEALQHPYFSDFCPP
T1 sequence (Q15078 whole entry partner): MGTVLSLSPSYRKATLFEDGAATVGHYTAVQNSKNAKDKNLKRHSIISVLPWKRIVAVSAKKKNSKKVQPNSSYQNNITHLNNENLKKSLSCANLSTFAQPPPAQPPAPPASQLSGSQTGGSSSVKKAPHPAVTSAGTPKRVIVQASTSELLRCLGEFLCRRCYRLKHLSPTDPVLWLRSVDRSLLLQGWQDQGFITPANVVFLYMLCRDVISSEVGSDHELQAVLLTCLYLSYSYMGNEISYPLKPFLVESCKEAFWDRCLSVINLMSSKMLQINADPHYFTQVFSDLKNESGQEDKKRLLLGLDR
Procedure: CDK2/Cyclin E kinase was produced in Sf9 insect cells via baculoviral infection and purified on a NiNTA column (Qiagen). […] CDK5/p35 was purchased from ProQinase GmbH.
(§1) The reactions were stopped by adding 5 μL of 3% aq H3PO4. Aliquots were spotted onto P-81 phosphocellulose (Whatman), washed 3× with 0.5% aq H3PO4 and finally air-dried.

[2] = target: T2, CDK2/Cyclin E (Homo sapiens, UniProt P24941); test: CDK2/Cyclin E kinase inhibition (33P-ATP, histone H1); format: biochemical; conditions: 15 μM ATP
T2 construct: made in house; host or cells: Sf9 insect cells (baculovirus)
Procedure: CDK2/Cyclin E kinase was produced in Sf9 insect cells via baculoviral infection and purified on a NiNTA column (Qiagen). The kinase reactions were assayed with 1 mg/mL histone H1 in the presence of 15 μM ATP, 0.05 μCi [γ-^33P]ATP and of the test compound in a final volume of 10 μL, all in a reaction buffer (60 mM HEPES-NaOH, pH 7.5, 3 mM MgCl2, 3 mM MnCl2, 3 μM Na-orthovanadate, 1.2 mM DTT, 2.5 μg/50 μl PEG20.000). CDK5/p35 was purchased from ProQinase GmbH. The kinase reactions were assayed with 1 mg/mL histone H1 in the presence of 0.15 μM ATP, 0.05 μCi [γ-^33P]ATP and of the test compound in a final volume of 10 μL, all in a reaction buffer (60 mM HEPES-NaOH, pH 7.5, 3 mM MgCl2, 3 mM MnCl2, 3 μM Na-orthovanadate, 1.2 mM DTT, 2.5 μg/50 μl PEG20.000).
as §1

[3] = test system: THP1 (human monocytic cell line); test: MTT cytotoxicity assay, leukemic cell line THP1; format: cell-based; conditions: Homo sapiens, THP-1, 72 h, three days
From the text: (§2) Cytotoxicity of the compounds is the major property determining their antileukemic efficacy in vivo. One of the parameters used, as the basis for cytotoxicity assays, is the metabolic activity of viable cells. For example, a microtiter assay, which uses (3-(4,5-dimethylthiazol-2-yl)-2,5-diphenyltetrazolium bromide (MTT), is widely used to quantitate cell proliferation and cytotoxicity. This assay is widely used in drug screening programs and in chemosensitivity testing. Because only metabolically active living cells reduce MTT to correspond purple formazan dye, these assays detect viable cells exclusively. The quantity of reduced MTT corresponds to the number of vital cells in the culture.
(§3) The compounds were assayed using the following leukemic cell lines: K562 (human chronic myelogenous leukaemia), HL60 (human promyelocytic leukaemia), CEM (human lymphoblastoid leukaemia), THP1 (human monocytic cell line), MV4; 11 (acute myelocytic leukemia). All cell lines were grown in RPMI medium supplemented with fetal bovine serum and L-glutamine and maintained at 37° C. in a humidified atmosphere with 5% CO2. For cytotoxicity assays, 2000-5000 cells were seeded into each well of 96 well plate, allowed to stabilize for at least 8 h and then tested compounds were added at various concentrations ranging from 100 to 0.01 μM in triplicates. After three days, MTT solution (5 mg/ml; Sigma, St. Louis, USA) was added to cells and medium was replaced with DMSO after five hours. The absorbance was measured at 620 nm by employing a microplate reader. MTT assays were repeated 3 times for each drug application and untreated cells were used as reference.

[4] = test system: HUVECs (human umbilical vein endothelial cells); test: HUVEC migration (scratch) assay; format: cell-based; conditions: 16 h, read-out: Inhibition of migration (EC50)
Procedure: (§4) To verify that novel compounds have anti-vascularisation properties, we analyzed their influence on the proliferation and migration of HUVECs. HUVECs (human umbilical vein endothelial cells) were purchased from Promocell (Heidelberg, Germany) and cultured in endothelial cell growth medium (ECGM, Promocell, Heidelberg, Germany) containing 10% FCS (Biochrom, Berlin, Germany). Experiments were performed using cells at passage 3.
For migration assay, confluent HUVECs were scratched with a pipette tip and immediately treated with either starvation medium M199 (serum-free, negative control; PAN Biotech) or full endothelial cell growth medium (positive control). After 16 h, cells were fixed with 3% formaldehyde and images were taken using the TILLvisON system (Lochham, Germany) connected to an Axiovert 200 microscope (Zeiss, Germany). Evaluation of pictures was made by S.CO LifeScience (Garching, Germany). Migration was quantified as the ratio of the area covered with cells and the area of the cell free wound.

[5] = test system: HL60 (human promyelocytic leukaemia); test: MTT cytotoxicity assay, leukemic cell line HL60; format: cell-based; conditions: Homo sapiens, HL-60, 72 h, three days
From the text: as §2, §3

[6] = test system: HUVECs (human umbilical vein endothelial cells); test: HUVEC proliferation assay (crystal violet); format: cell-based; conditions: Homo sapiens, HUVEC, 72 h, read-out: Inhibition of proliferation (EC50)
Procedure: as §4
For proliferation assay, 1.5×10^3 HUVECs were cultured for 24 h. Afterwards, cells were either left untreated or treated with novel compounds for 72 h. Proliferation assay was performed using crystal violet as described previously (Koltermann et al. 2007, Cell Mol. Life Sci. 64:1715-1722).

[7] = test system: PLC/PRF/5 (liver hepatoma); test: MTT cytotoxicity assay, solid cancer cell line PLC/PRF/5; format: cell-based; conditions: Homo sapiens, PLC-PRF-5, 72 h, three days
Procedure: as §3, with “following” for “following leukemic”, “G361 (malignant melanoma), MCF7 (breast adenocarcinoma), PLC/PRF/5 (liver hepatoma), PANC-1 (pancreatic carcinoma) and HCT116 (colon carcinoma).” for “K562 (human chronic myelogenous leukaemia), HL60 (human promyelocytic leukaemia), CEM (human lymphoblastoid leukaemia), THP1 (human monocytic cell line), MV4; 11 (acute myelocytic leukemia).”, “DMEM” for “RPMI”, “4000-10000” for “2000-5000”, “of a” for “of”, “16” for “8”

[8] = test system: CEM (human lymphoblastoid leukaemia); test: MTT cytotoxicity assay, leukemic cell line CEM; format: cell-based; conditions: Homo sapiens, 72 h, three days
From the text: as §2, §3

[9] = test system: G361 (malignant melanoma); test: MTT cytotoxicity assay, solid cancer cell line G361; format: cell-based; conditions: Homo sapiens, G-361, 72 h, three days
Procedure: as §3, with “following” for “following leukemic”, “G361 (malignant melanoma), MCF7 (breast adenocarcinoma), PLC/PRF/5 (liver hepatoma), PANC-1 (pancreatic carcinoma) and HCT116 (colon carcinoma).” for “K562 (human chronic myelogenous leukaemia), HL60 (human promyelocytic leukaemia), CEM (human lymphoblastoid leukaemia), THP1 (human monocytic cell line), MV4; 11 (acute myelocytic leukemia).”, “DMEM” for “RPMI”, “4000-10000” for “2000-5000”, “of a” for “of”, “16” for “8”

[10] = test system: MV4;11 (acute myelocytic leukemia); test: MTT cytotoxicity assay, leukemic cell line MV4;11; format: cell-based; conditions: Homo sapiens, MV4-11, 72 h, three days
From the text: as §2, §3

[11] = test system: PANC-1 (pancreatic carcinoma); test: MTT cytotoxicity assay, solid cancer cell line PANC-1; format: cell-based; conditions: Homo sapiens, PANC-1, 72 h, three days
Procedure: as §3, with “following” for “following leukemic”, “G361 (malignant melanoma), MCF7 (breast adenocarcinoma), PLC/PRF/5 (liver hepatoma), PANC-1 (pancreatic carcinoma) and HCT116 (colon carcinoma).” for “K562 (human chronic myelogenous leukaemia), HL60 (human promyelocytic leukaemia), CEM (human lymphoblastoid leukaemia), THP1 (human monocytic cell line), MV4; 11 (acute myelocytic leukemia).”, “DMEM” for “RPMI”, “4000-10000” for “2000-5000”, “of a” for “of”, “16” for “8”

[12] = test system: HCT116 (colon carcinoma); test: MTT cytotoxicity assay, solid cancer cell line HCT116; format: cell-based; conditions: Homo sapiens, HCT-116, 72 h, three days
Procedure: as §3, with “following” for “following leukemic”, “G361 (malignant melanoma), MCF7 (breast adenocarcinoma), PLC/PRF/5 (liver hepatoma), PANC-1 (pancreatic carcinoma) and HCT116 (colon carcinoma).” for “K562 (human chronic myelogenous leukaemia), HL60 (human promyelocytic leukaemia), CEM (human lymphoblastoid leukaemia), THP1 (human monocytic cell line), MV4; 11 (acute myelocytic leukemia).”, “DMEM” for “RPMI”, “4000-10000” for “2000-5000”, “of a” for “of”, “16” for “8”

[13] = test system: MCF7 (breast adenocarcinoma); test: MTT cytotoxicity assay, solid cancer cell line MCF7; format: cell-based; conditions: Homo sapiens, MCF7, 72 h, three days
Procedure: as §3, with “following” for “following leukemic”, “G361 (malignant melanoma), MCF7 (breast adenocarcinoma), PLC/PRF/5 (liver hepatoma), PANC-1 (pancreatic carcinoma) and HCT116 (colon carcinoma).” for “K562 (human chronic myelogenous leukaemia), HL60 (human promyelocytic leukaemia), CEM (human lymphoblastoid leukaemia), THP1 (human monocytic cell line), MV4; 11 (acute myelocytic leukemia).”, “DMEM” for “RPMI”, “4000-10000” for “2000-5000”, “of a” for “of”, “16” for “8”

[14] = test system: K562 (human chronic myelogenous leukaemia); test: MTT cytotoxicity assay, leukemic cell line K562; format: cell-based; conditions: Homo sapiens, K562, 72 h, three days
From the text: as §2, §3

[15] = test system: breast carcinoma cell line MCF7; test: Cell cycle profile by BrdU/propidium iodide flow cytometry; format: cell-based; conditions: asynchronously growing MCF7, 24 h, FIG. 1
Procedure: Sub-confluent cells were treated with test compounds at different concentrations for 24 h. The cultures were pulse-labeled with […] 5-bromo-20-deoxyuridine (BrdU) for 30 min at 37° C. prior to harvesting. The cells were then washed in PBS, fixed with 70% ethanol, and denatured in 2 M HCl. Following neutralization, the cells were stained with anti-BrdU fluorescein-labeled antibodies, washed, stained with propidium iodide and analyzed by flow cytometry using a 488 nm laser

SMILES: CC[C@H](CO)Nc1nc(NCc2ccc(-c3ccccn3)cc2)c2n[nH]c(C(C)C)c2n1 [Compound 83]
IC50 [3]: 0.01 µM
EC50 [4]: 0.039 µM
IC50 [2]: 0.054 µM
IC50 [5]: 0.02 µM
EC50 [6]: 0.034 µM
IC50 [7]: 0.02 µM
IC50 [8]: 0.06 µM
IC50 [9]: 0.04 µM
IC50 [10]: 0.07 µM
IC50 [11]: 0.02 µM
IC50 [12]: 0.03 µM
IC50 [13]: 0.05 µM

SMILES: CC(C)c1[nH]nc2c(NCc3ccc(-c4ccccn4)cc3)nc(NCCN(C)C)nc12 [Compound 47]
IC50 [14]: 0.13 µM
IC50 [3]: 0.06 µM
IC50 [1]: 2.14 µM
IC50 [5]: 0.09 µM
EC50 [6]: 0.181 µM
IC50 [7]: 0.24 µM
effect on the cell cycle of MCF7 [15]: potently arrested cells in S, G2 and M phases
IC50 [8]: 0.07 µM
IC50 [9]: 0.47 µM
IC50 [10]: 0.12 µM
IC50 [11]: 0.2 µM
IC50 [12]: 0.34 µM
IC50 [13]: 0.23 µM

SMILES: CC(C)c1n[nH]c2c(NCc3ccc(-c4ccccn4)cc3)nc(S(C)(=O)=O)nc12 [Compound 7]
IC50 [14]: 0.64 µM
IC50 [3]: 1.64 µM
IC50 [1]: 0.165 µM
EC50 [4]: 0.55 µM
IC50 [5]: 0.52 µM
EC50 [6]: 0.648 µM
IC50 [7]: 0.21 µM
IC50 [8]: 0.93 µM
IC50 [9]: 0.43 µM
IC50 [10]: 1.69 µM
IC50 [11]: 1.56 µM
IC50 [12]: 1.97 µM
IC50 [13]: 0.46 µM

Continued, in another order:

IC50 [1]: 0.182 µM
IC50 [2]: 0.64 µM
SMILES: CC(C)c1[nH]nc2c(NCc3ccc(-c4ccccn4)cc3)nc(NCCN3CCCC3)nc12 [Compound 55]

IC50 [1]: 0.204 µM
IC50 [2]: 0.322 µM
SMILES: CC(C)c1[nH]nc2c(NCc3ccc(-c4ccccn4)cc3)nc(NCCN3CCC3)nc12 [Compound 54]
IC50 [14]: 0.36 µM
IC50 [3]: 0.37 µM
IC50 [5]: 0.29 µM
IC50 [8]: 0.24 µM
IC50 [10]: 0.24 µM

IC50 [1]: 0.088 µM
IC50 [2]: 0.046 µM
SMILES: CC(C)c1n[nH]c2c(NCc3ccc(-c4ccccn4)cc3)nc(N[C@@H]3CCCC[C@H]3N)nc12 (relative stereo) [Compound 64]
IC50 [14]: 0.1 µM
IC50 [3]: 0.04 µM
IC50 [5]: 0.09 µM
IC50 [7]: 0.14 µM
IC50 [8]: 0.05 µM
IC50 [9]: 0.15 µM
IC50 [10]: 0.09 µM
IC50 [11]: 0.08 µM
IC50 [12]: 0.34 µM
IC50 [13]: 0.22 µM

IC50 [1]: 0.048 µM
IC50 [2]: 0.023 µM
SMILES: CC(C)c1[nH]nc2c(NCc3ccc(-c4ccccn4)cc3)nc(NC3CCCCC3N)nc12 (stereo not shown) [Compound 65]
IC50 [14]: 0.3 µM
IC50 [3]: 0.11 µM
EC50 [4]: 0.077 µM
IC50 [5]: 0.22 µM
EC50 [6]: 0.005 µM
IC50 [7]: 0.05 µM
IC50 [8]: 0.14 µM
IC50 [9]: 0.04 µM
IC50 [10]: 0.38 µM
IC50 [11]: 0.02 µM
IC50 [12]: 0.08 µM
IC50 [13]: 0.06 µM
